Laboratory results reported in US20250361241A1, “HPK1 INHIBITOR AND MEDICAL USE THEREOF” (Betta Pharmaceuticals Co., Ltd., priority 2022, published 2025).

Assays:
HPK1 [1] = target: T1, HPK1 (Homo sapiens (Human), UniProt Q92918); test: HPK1 enzyme activity detection (1 mM ATP system), ADP-Glo, Pharmacological Experiment 1; format: biochemical
Method: Pharmacological Experiment 1: HPK1 Enzyme Activity Detection (1 mM ATP System)
• (1) Take ADP-GloTMKinase Assay Kit (Promega, Cat. No. V9102) to prepare 4× kinase buffer. • (2) Compound gradient dilution: The compound to be tested is diluted 3-fold, and 11 gradient concentrations are set, and each concentration is set for duplicate well detection. Serial dilutions were made in a 384-well plate to the corresponding 100×final concentration solution, and then 0.1 μL was transferred to the 384-well reaction plate for testing using Echo. Transfer 0.1 μL of 100% DMSO to the smallest and largest wells. • (3) Prepare HPK1 enzyme working solution using 4× kinase buffer. • (4) Add 5 μL of HPK1 enzyme working solution to each well and 5 μL of 1× kinase buffer to the smallest well. Centrifuge at 1000 rpm for 1 min and incubate at 25° C. for 15 min. • (5) During the incubation period, prepare the substrate working solution using 4× kinase buffer. • (6) Add 5 μL of substrate working solution containing 1 mM ATP to each well of the reaction plate, centrifuge at 1000 rpm for 1 min, and incubate at 25° C. for 60 min. • (7) At the end of incubation, add 5 μL of ADP Glo reagent to each well. Centrifuge at 1000 rpm for 1 min and incubate at 25° C. for 60 min. • (8) Add 10 μL of detection solution to each well, centrifuge at 1000 rpm for 1 min, and incubate at 25° C. for 60 min. • (9) Read using EnVision.
Inhibition rate calculation formula:
[formula] • Vehicle: Reading value of DMSO control well • Blank: No enzyme well reading • Largest well: Reading value of DMSO control well • Minimum well: No enzyme well reading
The log value of the concentration was used as the X-axis and the percentage inhibition rate was used as the Y-axis. The “log (inhibitor) vs. response—variable slope” of the analysis software GraphPad Prism 5 was used to fit the dose-effect curve to obtain the IC 50 value of the compound's inhibition of kinase binding.
See Table 1 for the enzymatic IC 50 data of the example compounds on HPK1.

HPK1 [2] = target: T1, HPK1; test: HPK1 enzyme activity detection (1 mM ATP system), ADP-Glo with MBP substrate, Pharmacological Experiment 2; format: biochemical
Method in brief: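 Compound in DMSO preincubated with HPK1 for 15 min at 25 °C, then reaction started with ATP (1 mM system) and MBP substrate for 60 min at 25 °C. ADP formed quantified by ADP-Glo luminescence; IC50 derived from percentage inhibition.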

Jurkat cells = test: Jurkat IL-2 secretion detection (anti-CD3/CD28 beads, ELISA); format: cell-based, human; details: for Maximum induction factor: IL-2 secretion, Jurkat cells; for EC3x: concentration for IL-2 secretion of Jurkat cells to reach 3 times the baseline, 20 h
Method: Pharmacological Experiment 5: Jurkat IL-2 Secretion Detection
• (1) Take the cultured Jurkat cells, adjust the density to 1×10^6 cells/mL, and inoculate them in a flat-bottom […] plate (Jet Biofil, TCP011096), with 100 μL per well, • (2) Add 50 μL of the test compound to each well and incubate at 37° C. for 30 min; • (3) Take human anti-CD3/CD28 magnetic beads (Miltenyi, 130-091-441), wash once with RPMI-1640 complete medium, and adjust the density to 4×106 beads/mL for later use; • (4) After the compound incubation, 50 μL of anti-human CD3/CD28 magnetic beads were added to each well and cultured at 37° C. for 20 h, • (5) The cell culture supernatant was obtained and the IL-2 secretion was detected using the Human IL-2 DuoSet ELISA kit (R&D, DY008); • (6) The log value of the concentration was used as the X-axis and the IL-2 secretion was used as the Y-axis. The “log (agonist) vs. response-variable slope” equation of the analysis software GraphPad Prism 7 was used to fit the dose-effect curve, thereby obtaining the […] and the […]

GLK = GLK (Homo sapiens (Human), UniProt Q8IVH8); test: GLK kinase assay (1 mM ATP system), ADP-Glo; format: biochemical
Method in brief: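 GLK kinase reaction with 1 mM ATP and MBP substrate ran 60 min at 25 °C after 15 min preincubation of enzyme with compound. ADP formed was detected by ADP-Glo luminescence; percent inhibition used to derive IC50.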

[3] = tested on: human peripheral blood mononuclear cells; test: Detection of IFN-γ secretion in human peripheral blood mononuclear cells (anti-CD3/CD28 beads, ELISA); format: cell-based; details: for Maximum induction factor: IFN-γ secretion, human PBMC; for EC3x: concentration for IFN-γ secretion of human PBMC to reach 3 times the baseline, 3 days
Method: Pharmacological Experiment 4: Detection of IFN-γ Secretion in Human Peripheral Blood Monocytes
• (1) Take human peripheral blood mononuclear cells frozen in liquid nitrogen, thaw in a 37° C. water bath, add 5 mL of preheated RPMI-1640 complete medium (containing 10% fetal bovine serum and penicillin/streptomycin), centrifuge at 500 g for 10 minutes, and discard the supernatant; • (2) Resuspend the cells in RPMI-1640 complete medium, adjust the density to 5×10^6 cells/mL, inoculate in a low-adhesion 6-well plate (Corning, 3471), and culture at 37° C. for 2 days; • (3) Collect cultured human peripheral blood mononuclear cells, centrifuge at 500 g for 10 min, and discard the supernatant; • (4) Resuspend the cells in RPMI-1640 complete medium, adjust the density to 1×10^6 cells/mL, and inoculate them in a round-bottom 96-well plate (Jet Biofil, TCP-002-096), with 100 μL per well; • (5) Add 50 μL of the test compound to each well and incubate at 37° C. for 30 min; • (6) Take human anti-CD3/CD28 magnetic beads (Miltenyi, 130-091-441), wash once with RPMI-1640 complete medium, and adjust the density to 0.5×106 beads/mL for later use; • (7) After the compound incubation, 50 μL of anti-human CD3/CD28 magnetic beads were added to each well and cultured at 37° C. for 3 days, • (8) The cell culture supernatant was obtained and the IFN-γ secretion was detected using the Human IFN-gamma DuoSet ELISA kit (R&D, DY285B-05); • (9) The log value of concentration was used as the X-axis and the IFN-γ secretion amount was used as the Y-axis. The “log (agonist) vs. response−variable slope” equation of the analysis software GraphPad Prism 7 was used to fit the dose-effect curve, thereby obtaining the EC3x value and the maximum induction factor of the compound for the secretion of IFN-γ from human peripheral blood mononuclear cells to reach 3 times the baseline.

[4] = PK study of compound in dogs; format: in vivo; details: Beagle dog, PO 5 mg/kg, DMSO/Solutol/saline
Method: Pharmacological Experiment 6: PK Study of Compound in Dogs The compound was mixed with a solvent of saline or 10% DMSO/5% Solutol/85% saline or 10% DMSO/10% Solutol/80% saline (specific solvents are shown in the table below), vortexed and sonicated to prepare a clear oral solution. […] The drug concentration was analyzed by LC-MS/MS method, and the pharmacokinetic parameters were calculated using Phoenix WinNolin software (Pharsight, USA).

Sequence of GLK (Q8IVH8 whole entry, species assumed): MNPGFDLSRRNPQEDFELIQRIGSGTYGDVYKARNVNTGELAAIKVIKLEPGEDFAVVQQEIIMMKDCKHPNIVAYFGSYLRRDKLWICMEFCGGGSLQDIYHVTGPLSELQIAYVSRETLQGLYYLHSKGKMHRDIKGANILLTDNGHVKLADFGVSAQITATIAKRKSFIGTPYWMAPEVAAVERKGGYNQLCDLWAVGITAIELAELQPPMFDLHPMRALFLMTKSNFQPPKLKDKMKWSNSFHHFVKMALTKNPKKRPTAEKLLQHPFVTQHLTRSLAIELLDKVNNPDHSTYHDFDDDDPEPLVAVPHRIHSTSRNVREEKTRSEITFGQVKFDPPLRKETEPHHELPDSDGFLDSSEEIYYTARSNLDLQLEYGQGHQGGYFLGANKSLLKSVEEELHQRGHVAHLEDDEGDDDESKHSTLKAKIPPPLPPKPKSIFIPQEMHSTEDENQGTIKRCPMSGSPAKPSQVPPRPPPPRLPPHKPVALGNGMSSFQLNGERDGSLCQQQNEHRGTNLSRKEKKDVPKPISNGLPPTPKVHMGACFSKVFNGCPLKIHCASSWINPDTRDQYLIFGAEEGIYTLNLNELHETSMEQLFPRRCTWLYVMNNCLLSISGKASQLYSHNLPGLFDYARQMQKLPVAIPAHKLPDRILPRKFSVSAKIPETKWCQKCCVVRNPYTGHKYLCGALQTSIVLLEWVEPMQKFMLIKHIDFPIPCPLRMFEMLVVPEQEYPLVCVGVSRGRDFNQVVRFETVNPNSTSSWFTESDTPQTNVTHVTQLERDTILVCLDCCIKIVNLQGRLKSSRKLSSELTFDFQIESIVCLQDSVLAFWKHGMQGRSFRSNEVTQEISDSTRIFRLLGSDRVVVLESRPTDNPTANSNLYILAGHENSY
T1 sequence (Q92918 whole entry, species assumed): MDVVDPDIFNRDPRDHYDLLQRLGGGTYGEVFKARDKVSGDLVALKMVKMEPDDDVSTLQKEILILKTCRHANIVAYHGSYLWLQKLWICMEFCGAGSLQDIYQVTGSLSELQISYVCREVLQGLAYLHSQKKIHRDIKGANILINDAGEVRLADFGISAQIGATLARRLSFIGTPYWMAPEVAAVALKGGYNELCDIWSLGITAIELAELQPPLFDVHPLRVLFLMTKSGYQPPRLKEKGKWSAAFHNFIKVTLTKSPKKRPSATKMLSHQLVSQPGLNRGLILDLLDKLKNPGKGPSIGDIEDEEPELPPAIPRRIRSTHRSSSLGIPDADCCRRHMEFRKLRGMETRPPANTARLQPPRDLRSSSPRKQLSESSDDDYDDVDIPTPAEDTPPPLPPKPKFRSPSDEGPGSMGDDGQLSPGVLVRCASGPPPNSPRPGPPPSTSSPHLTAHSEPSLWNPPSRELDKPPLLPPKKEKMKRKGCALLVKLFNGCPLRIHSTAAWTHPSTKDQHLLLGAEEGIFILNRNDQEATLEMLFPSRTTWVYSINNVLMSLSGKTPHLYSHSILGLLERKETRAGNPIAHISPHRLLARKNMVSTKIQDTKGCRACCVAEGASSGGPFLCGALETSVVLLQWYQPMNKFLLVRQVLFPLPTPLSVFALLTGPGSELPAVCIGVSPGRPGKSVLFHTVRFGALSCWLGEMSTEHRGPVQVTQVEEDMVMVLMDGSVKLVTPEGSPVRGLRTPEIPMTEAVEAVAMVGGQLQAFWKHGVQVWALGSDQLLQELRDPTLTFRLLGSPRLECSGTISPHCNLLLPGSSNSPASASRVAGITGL

| Compound | IC50 (HPK1 [2]) | IC50 (GLK) | Maximum induction factor [3] | EC3x [3] | also measured |
| --- | --- | --- | --- | --- | --- |
| Cc1cc(Nc2ccc(-c3cnc4cc(F)ccn34)c3c2C(=O)NC3)cc2c1C1(CC1)CN(C)C2 [Compound 16] | – | – | – | – | IC50 (HPK1 [1]): 20.6 nM |
| Cc1cc(Nc2cnc(-c3ccnc4c3ccn4C)c3c2C(=O)NC3)cc2c1C1(CCOCC1)CN(C)C2 [Compound 14] | – | – | – | – | IC50 (HPK1 [1]): 54.8 nM |
| CN(C)C1CC2(CCOC2)c2ccc(Nc3ccc(-c4cnc5cc(F)ccn45)c4c3C(=O)NC4)nc21 (stereo not drawn) [Compound 58, 7-((7-(DIMETHYLAMINO)-4′,5′,6,7-TETRAHYDRO-2′H-SPIRO[CYCLOPENTANE[B]PYRIDINE-5,3′-FURAN]-2-YL)AMINO)-4-(7-FLUOROIMIDAZO[1,2-A]PYRIDIN-3-YL)ISOINDOL-1-ONE] | 5.25 nM | 1480 nM | 6.5 | 352 nM | – |
| O=C1NCc2c(-c3cnc4cc(F)ccn34)ccc(Nc3ccc4c(n3)C(N3CCCC3)CC43CCOCC3)c21 (stereo not drawn) [Compound 40, 4-(7-FLUOROIMIDAZO[1,2-A]PYRIDIN-3-YL)-7-((7-(PYRROLIDIN-1-YL)-2′,3′,5′,6,6′,7-HEXAHYDROSPIRO[B]PYRIDIN-5,4′-PYRAN]-2-YL)AMINO)ISOINDOLIN-1-ONE] | 4.8 nM | – | – | – | Maximum induction factor (Jurkat cells): 11.5; EC3x (Jurkat cells): 163 nM |
| O=C1NCc2c(-c3cnc4cc(F)ccn34)ccc(Nc3ccc4c(n3)C(NC3CC3)CC43CCOCC3)c21 (stereo not drawn) [Compound 62, 7-((7-(CYCLOPROPYLAMINO)-2′,3′,5′,6,6′,7-HEXAHYDROSPIRO[CYCLOPENTYL[B]PYRIDINE-5,4′-PYRAN]-2-YL)AMINO)-4-(7-FLUOROIMIDAZOLE[1,2-A]PYRIDIN-3-YL)ISOINDOL-1-ONE] | 10.2 nM | > 30000 nM | 4.9 | 241 nM | – |
| Cc1cc(Nc2ccc(-c3cnc4cc(F)ccn34)c3c2C(=O)NC3)cc2c1C1(CCOCC1)CN(C)C2 [Compound 15] | – | – | – | – | IC50 (HPK1 [1]): 6.14 nM |
| 4-(7-FLUOROIMIDAZO[1,2-A]PYRIDIN-3-YL)-7-((7′-METHYL-2,3,5,6,7′,8′-HEXAHYDRO-6′-SPIRO[PYRAN-4,5′-[1,7]NAPHTHYRIDINE]-2′-YL)AMINO)ISOINDOL-1-ONE [Compound 50] | 3.39 nM | 1230 nM | 4.8 | 181 nM | – |
| CN(C)C1CC2(CCOCC2)c2ccc(Nc3ccc(-c4cnc5cc(F)ccn45)c4c3C(=O)NC4)cc21 (stereo not drawn) [Compound 9] | – | – | – | – | IC50 (HPK1 [1]): 205 nM |
| 4-(7-FLUOROIMIDAZO[1,2-A]PYRIDIN-3-YL)-7-((2,3,5,6,7′,8′-HEXAHYDRO-6′H-SPIRO[PYRAN-4,5′-[1,7]NAPHTHYRIDINE]-2′-YL)AMINO)ISOINDOL-1-ONE [Compound 87] | 5.12 nM | 724 nM | 11.2 | 193 nM | – |
| O=C1NCc2c(-c3cnc4cc(F)ccn34)ccc(Nc3ccc4c(n3)C(N3CC[C@@H](F)C3)CC43CCOCC3)c21 (stereo partly drawn) [Compound 71, 4-(7-FLUOROIMIDAZOLO[1,2-A]PYRIDIN-3-YL)-7-((7-((R)-3-FLUOROPYRROLIDIN-1-YL)-2′,3′,5′,6,6′,7-HEXA HYDROSPIRO[CYCLOPENTYL[B]PYRIDIN-5,4′-PYRAN]-2-YL)AMINO)ISOINDOL-1-ONE] | 3.27 nM | 293 nM | 16.6 | 76 nM | – |
| CN(C)[C@@H]1CC2(CCOCC2)c2ccc(Nc3ccc(-c4cnc5cc(OC(F)F)ccn45)c4c3C(=O)NC4)nc21 [Compound 158A, (R)-4-(7-(DIFLUOROMETHOXY)IMIDAZOL 1,2-A]PYRIDIN-3-YL)-7-((7-DIMETHYLAMINO)-2′,3′,5′,6,6′,7-HEXAHYDROSPIRO[CYCLOPENTADIENYL[B]PYRIDINE-54′-PYRAN]-2-YL)AMINO)ISOINDOLIN-1-ONE] | 3 nM | 206 nM | 10.8 | 167 nM | Bioavailability F % [4]: 43%; PO Plasma AUC [4]: 2704 ng·h/mL; T1/2 [4]: 6.06 h |
| O=C1NCc2c(-c3cnc4cc(OC(F)F)ccn34)ccc(Nc3ccc4c(n3)CNCC43CCOCC3)c21 [Compound 123] | 12.1 nM | 896 nM | 26.8 | 214 nM | – |

Further lines, with some results ahead:

| IC50 (HPK1 [2]) | IC50 (GLK) | Compound | Maximum induction factor [3] | EC3x [3] | also measured |
| --- | --- | --- | --- | --- | --- |
| 3.49 nM | 552 nM | CC(C)NC1CC2(CCOCC2)c2ccc(Nc3ccc(-c4cnc5cc(F)ccn45)c4c3C(=O)NC4)nc21 (stereo not drawn) [Compound 104] | – | – | Maximum induction factor (Jurkat cells): 8.3; EC3x (Jurkat cells): 172 nM |
| 3.55 nM | 1200 nM | O=C1NCc2c(-c3cnc4cc(F)ccn34)ccc(Nc3ccc4c(n3)C(NC3CCOC3)CC43CCOCC3)c21 (stereo not drawn) [Compound 107] | 8.8 | 296 nM | – |
| 4.67 nM | 291 nM | O=C1NCc2c(-c3cnc4cc(Cl)ccn34)ccc(Nc3ccc4c(n3)C(N3CCCC3)CC43CCOCC3)c21 (stereo not drawn) [Compound 103] | 5.3 | 123 nM | – |
| 3.21 nM | 455 nM | O=C1NCc2c(-c3cnc4cc(Cl)ccn34)ccc(Nc3ccc4c(n3)CCCC43CCOCC3)c21 [Compound 122] | 16.2 | 56 nM | – |
| 3.57 nM | 311 nM | Cc1ccn2c(-c3ccc(Nc4ccc5c(n4)C(N(C)C)CC54CCOCC4)c4c3CNC4=O)cnc2c1 (stereo not drawn) [Compound 161] | 6.4 | 67 nM | – |
| 3.29 nM | 1050 nM | O=C1NCc2c(-c3cnc4cc(F)ccn34)ccc(Nc3ccc4c(n3)C(NC3CCOCC3)CC43CCOCC3)c21 (stereo not drawn) [Compound 108] | – | – | Maximum induction factor (Jurkat cells): 8.4; EC3x (Jurkat cells): 448 nM |
| 5.23 nM | 767 nM | O=C1NCc2c(-c3cnc4cc(F)ccn34)ccc(Nc3ccc4c(n3)CCCC43CCCC3)c21 [Compound 127] | 19.1 | 74.6 nM | – |
